Measurements as given in PMC12155096 (International Journal of Molecular Sciences, 2025).
Read-outs that look alike come from different tables or passages of the source.

Key:
human CYP2C9 [1] = biological target: T1, human CYP2C9 (Homo sapiens, UniProt P11712)
human CYP1A2 [2] = biological target: T2, human CYP1A2 (Homo sapiens, UniProt P05177); experiment: biochemical
T2 sequence (P05177 1-516): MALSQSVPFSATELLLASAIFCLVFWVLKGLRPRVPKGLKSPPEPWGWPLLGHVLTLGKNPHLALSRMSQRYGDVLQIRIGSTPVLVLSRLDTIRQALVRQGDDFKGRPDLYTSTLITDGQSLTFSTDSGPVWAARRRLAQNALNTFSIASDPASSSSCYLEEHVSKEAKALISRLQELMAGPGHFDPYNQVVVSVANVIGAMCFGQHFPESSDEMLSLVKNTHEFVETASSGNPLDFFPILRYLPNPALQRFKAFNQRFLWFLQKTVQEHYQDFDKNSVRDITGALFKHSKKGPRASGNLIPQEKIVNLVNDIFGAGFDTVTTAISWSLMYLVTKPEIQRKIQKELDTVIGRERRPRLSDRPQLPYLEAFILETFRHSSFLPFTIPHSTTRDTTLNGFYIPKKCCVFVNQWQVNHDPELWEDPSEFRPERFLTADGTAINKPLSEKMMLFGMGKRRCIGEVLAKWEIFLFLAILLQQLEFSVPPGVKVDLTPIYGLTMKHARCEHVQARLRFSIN

human CYP2C19 [3] = biological target: T3, human CYP2C19 (Homo sapiens, UniProt P33261)
human CYP2D6 = human CYP2D6 (Homo sapiens, UniProt P10635)
CYP3A4 = CYP3A4 (Homo sapiens, UniProt P08684); experiment: biochemical
human CYP2C19 [4] = biological target: T3, human CYP2C19; experiment: biochemical
[5] = biological target: Photinus pyralis (firefly) luciferase (Photinus pyralis, UniProt P08659); experiment: biochemical; format: biochemical
human CYP2C9 [6] = biological target: T1, human CYP2C9; experiment: biochemical
human CYP1A2 [7] = biological target: T2, human CYP1A2
[8] = CYP1A2 AC50 (half-maximal activity concentration)
[9] = CYP3A4 AC50 (half-maximal activity concentration)
[10] = CYP2C19 AC50 (half-maximal activity concentration)
[11] = CYP1A2 IC50 (half-maximal inhibitory concentration)
[12] = CYP2C19 IC50 (half-maximal inhibitory concentration)
[13] = CYP2C9 IC50 (half-maximal inhibitory concentration)
[14] = CYP3A4 IC50 (half-maximal inhibitory concentration)

human CYP2D6, sequence (P10635 whole entry): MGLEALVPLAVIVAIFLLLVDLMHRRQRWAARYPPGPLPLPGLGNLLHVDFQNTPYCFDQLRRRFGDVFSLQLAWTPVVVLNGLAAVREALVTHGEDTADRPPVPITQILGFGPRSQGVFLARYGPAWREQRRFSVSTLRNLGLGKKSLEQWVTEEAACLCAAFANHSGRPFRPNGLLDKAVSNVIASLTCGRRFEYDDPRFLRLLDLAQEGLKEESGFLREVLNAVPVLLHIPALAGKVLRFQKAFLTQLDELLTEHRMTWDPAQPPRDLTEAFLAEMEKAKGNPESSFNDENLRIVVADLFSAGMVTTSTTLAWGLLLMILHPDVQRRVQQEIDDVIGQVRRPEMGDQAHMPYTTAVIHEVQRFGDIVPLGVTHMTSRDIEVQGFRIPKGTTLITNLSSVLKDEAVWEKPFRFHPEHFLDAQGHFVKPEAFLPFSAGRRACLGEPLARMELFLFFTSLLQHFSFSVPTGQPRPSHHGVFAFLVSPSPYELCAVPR
T1 sequence (P11712 whole entry): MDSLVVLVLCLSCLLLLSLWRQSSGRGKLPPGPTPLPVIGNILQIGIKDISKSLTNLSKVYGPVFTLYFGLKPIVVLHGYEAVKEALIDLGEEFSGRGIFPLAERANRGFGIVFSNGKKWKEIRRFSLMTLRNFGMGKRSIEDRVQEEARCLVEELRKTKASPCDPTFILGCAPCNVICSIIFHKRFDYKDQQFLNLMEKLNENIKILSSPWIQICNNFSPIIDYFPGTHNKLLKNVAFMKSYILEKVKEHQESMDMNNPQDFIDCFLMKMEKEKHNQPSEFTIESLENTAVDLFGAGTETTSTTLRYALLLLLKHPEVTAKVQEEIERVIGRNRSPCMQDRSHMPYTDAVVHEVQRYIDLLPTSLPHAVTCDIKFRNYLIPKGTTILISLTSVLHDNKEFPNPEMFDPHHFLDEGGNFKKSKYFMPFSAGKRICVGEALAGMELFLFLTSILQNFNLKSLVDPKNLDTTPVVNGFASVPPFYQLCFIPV
CYP3A4, sequence (P08684 whole entry): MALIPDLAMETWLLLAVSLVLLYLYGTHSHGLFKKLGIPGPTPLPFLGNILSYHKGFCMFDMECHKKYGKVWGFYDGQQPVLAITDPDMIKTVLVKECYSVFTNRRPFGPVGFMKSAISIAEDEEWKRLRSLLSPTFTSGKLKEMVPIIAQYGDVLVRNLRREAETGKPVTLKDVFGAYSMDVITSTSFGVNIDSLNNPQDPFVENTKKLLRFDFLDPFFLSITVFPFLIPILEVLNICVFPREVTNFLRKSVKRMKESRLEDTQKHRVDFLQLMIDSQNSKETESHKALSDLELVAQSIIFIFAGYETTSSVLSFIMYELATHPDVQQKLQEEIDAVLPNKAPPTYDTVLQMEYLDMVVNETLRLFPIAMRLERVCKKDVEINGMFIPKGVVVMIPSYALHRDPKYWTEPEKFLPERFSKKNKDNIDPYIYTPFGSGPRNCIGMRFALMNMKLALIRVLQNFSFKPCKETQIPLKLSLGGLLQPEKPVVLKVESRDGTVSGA
T3 sequence (P33261 whole entry): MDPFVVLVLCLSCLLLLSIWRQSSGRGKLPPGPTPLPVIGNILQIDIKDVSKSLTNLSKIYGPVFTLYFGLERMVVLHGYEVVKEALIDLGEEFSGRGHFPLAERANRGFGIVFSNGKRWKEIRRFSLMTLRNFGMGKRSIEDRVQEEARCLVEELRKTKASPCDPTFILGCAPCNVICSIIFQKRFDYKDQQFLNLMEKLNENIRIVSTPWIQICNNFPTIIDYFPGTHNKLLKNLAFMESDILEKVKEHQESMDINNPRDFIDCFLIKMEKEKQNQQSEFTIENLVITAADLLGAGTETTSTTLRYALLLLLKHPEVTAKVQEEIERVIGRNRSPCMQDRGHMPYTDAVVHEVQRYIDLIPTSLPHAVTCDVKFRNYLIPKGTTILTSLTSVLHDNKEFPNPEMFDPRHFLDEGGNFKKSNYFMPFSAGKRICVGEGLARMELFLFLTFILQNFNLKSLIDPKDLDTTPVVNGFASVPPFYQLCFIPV
Photinus pyralis (firefly) luciferase, sequence (P08659 whole entry): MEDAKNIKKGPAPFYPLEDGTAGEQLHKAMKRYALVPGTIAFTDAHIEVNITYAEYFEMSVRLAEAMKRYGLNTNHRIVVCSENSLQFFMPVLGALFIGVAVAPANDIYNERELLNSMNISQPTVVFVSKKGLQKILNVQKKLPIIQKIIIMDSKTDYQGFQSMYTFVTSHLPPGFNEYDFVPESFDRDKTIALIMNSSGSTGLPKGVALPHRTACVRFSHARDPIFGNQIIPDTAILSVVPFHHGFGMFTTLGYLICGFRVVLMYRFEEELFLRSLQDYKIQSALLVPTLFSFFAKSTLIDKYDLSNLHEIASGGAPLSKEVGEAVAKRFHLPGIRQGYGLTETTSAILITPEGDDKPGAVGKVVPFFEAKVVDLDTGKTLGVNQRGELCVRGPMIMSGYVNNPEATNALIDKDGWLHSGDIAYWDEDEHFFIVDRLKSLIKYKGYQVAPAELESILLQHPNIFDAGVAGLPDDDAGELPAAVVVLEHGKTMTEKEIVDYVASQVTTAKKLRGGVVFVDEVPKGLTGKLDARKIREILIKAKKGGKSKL

Row | SMILES | CYP2C9 AC50 (half-maximal activity concentration) (human CYP2C9 [1]) | AC50 (human CYP1A2 [2]; [8]) | CYP2C19 AC50 (half-maximal activity concentration) (human CYP2C19 [3]) | CYP2D6 AC50 (half-maximal activity concentration) (human CYP2D6) | AC50 (CYP3A4; [9]) | also measured
1 | O=[N+]([O-])c1c(Cl)cc(Cl)cc1Cl [2,4,6-Trichloronitrobenzene] | Inactive | 34.7 µM | Inactive | Inactive | 6.35 µM | 
2 | O=[N+]([O-])c1ccccc1CCl [2-Nitrobenzyl chloride] | Inactive | 56.1 µM | Inconclusive inhibitor | Inconclusive inhibitor | 36.1 µM | 
3 | COC(=O)c1ccc(C(=O)OC)cc1 [Dimethyl terephthalate] | Inactive | 9.66 µM | Inactive | Inactive | 40.1 µM | 
4 | CCNc1nc(NC(C)(C)C)nc(SC)n1 [Terbutryn] | Inconclusive activator | 7.74 µM |  | Inactive | 11.5 µM | AC50 (human CYP2C19 [4]; [10]): 39.6 µM
5 | CO/N=C(/C(=O)OC)c1ccccc1COc1ccccc1C [Kresoxim-methyl] |  |  |  |  |  | Luciferase IC50 (half-maximal inhibitory concentration) [5]: Inactive; IC50 (human CYP1A2 [2]; [11]): 22 µM; IC50 (human CYP2C19 [4]; [12]): 0.51 µM; IC50 (human CYP2C9 [6]; [13]): 19.6 µM; CYP2D6 IC50 (half-maximal inhibitory concentration) (human CYP2D6): Inactive; IC50 (CYP3A4; [14]): 9.48 µM
6 | CC(=O)c1ccc2ccccc2c1 [2'-Acetonaphthone] | Inactive | 9.34 µM |  | Inconclusive inhibitor | 34.4 µM | AC50 (human CYP2C19 [4]; [10]): 45 µM
7 | O=[N+]([O-])c1cccc(Cl)c1Cl [2,3-Dichloronitrobenzene] | Inconclusive activator | 34.6 µM | Inactive | Inactive | 29.1 µM | 
8 | CCCCc1c(C)nc(NCC)[nH]c1=O [Ethirimol] | Inactive | 31.1 µM | Inconclusive inhibitor | Inactive | 31.8 µM | 
9 | Cc1ccc2cc3c(ccc4ccccc43)c3c2c1CC3 [3-Methylcholanthrene] |  |  |  |  |  | IC50 [5]: 6.94 µM; IC50 (human CYP1A2 [2]; CYP1A2 IC50): 0.39 µM; IC50 (human CYP2C19 [4]; CYP2C19 IC50): 22.4 µM; IC50 (human CYP2C9 [6]; CYP2C9 IC50): 6.43 µM; CYP2D6 IC50 (human CYP2D6): Inactive; IC50 (CYP3A4; CYP3A4 IC50): 8.02 µM
10 | O=c1c2ccccc2oc2ccccc12 [Xanthone] |  |  |  |  |  | IC50 [5]: 23.6 µM; AC50 (human CYP1A2 [2]): 0.5 µM; IC50 (human CYP1A2 [2]): 0.5 µM; AC50 (human CYP2C19 [4]): 29.7 µM; IC50 (human CYP2C19 [4]): 29.7 µM; AC50 (human CYP2C9 [6]): 35.7 µM; IC50 (human CYP2C9 [6]): 35.7 µM; CYP2D6 IC50 (half-maximal inhibitory concentration) (human CYP2D6): Inactive; AC50 (CYP3A4): 14.5 µM
11 | O=[N+]([O-])c1c(Cl)c(Cl)c(Cl)c(Cl)c1Cl [Pentachloronitrobenzene] | Inconclusive inhibitor | 1.94 µM | Inconclusive inhibitor | Inactive | 4.7 µM | 
12 | CCN(Cc1c(F)cccc1Cl)c1c([N+](=O)[O-])cc(C(F)(F)F)cc1[N+](=O)[O-] [Flumetralin] |  |  |  |  |  | Luciferase IC50 (half-maximal inhibitory concentration) [5]: Inactive; CYP1A2 IC50 (half-maximal inhibitory concentration) (human CYP1A2 [7]): Inactive; IC50 (human CYP2C19 [4]; [12]): 2.22 µM; IC50 (human CYP2C9 [6]): 7.39 µM; CYP2D6 IC50 (half-maximal inhibitory concentration) (human CYP2D6): Inactive; IC50 (CYP3A4; [14]): 0.38 µM
13 | COC(=O)C1=C(C)NC(C)=C(C(=O)OCCc2ccc(N3CCN(C(c4ccccc4)c4ccccc4)CC3)cc2)C1c1cccc([N+](=O)[O-])c1 (stereo not drawn) [Watanidipine] |  |  |  |  |  | Luciferase IC50 (half-maximal inhibitory concentration) [5]: Inactive; IC50 (human CYP1A2 [2]): 14.6 µM; IC50 (human CYP2C19 [4]): 8.39 µM; IC50 (human CYP2C9 [6]): 0.49 µM; CYP2D6 IC50 (half-maximal inhibitory concentration) (human CYP2D6): Inactive; IC50 (CYP3A4): 2.38 µM
14 | CC(=O)[C@H]1CC[C@H]2[C@@H]3CC[C@H]4C[C@](C)(O)CC[C@]4(C)[C@H]3CC[C@]12C [Ganaxolone] | Inactive | 25.3 µM | Inactive | Inactive | 3.37 µM | 
15 | Nc1ccc2c3c(cccc13)-c1ccccc1-2 [3-Aminofluoranthene] |  |  |  |  |  | IC50 [5]: 27.8 µM; IC50 (human CYP1A2 [2]; CYP1A2 IC50): 0.13 µM; IC50 (human CYP2C19 [4]; CYP2C19 IC50): 21.2 µM; IC50 (human CYP2C9 [6]; CYP2C9 IC50): 34.7 µM; CYP2D6 IC50 (human CYP2D6): Inactive; IC50 (CYP3A4; CYP3A4 IC50): 19.8 µM
16 | O=C(Cc1ccccc1)c1ccccc1 [1,2-Diphenylethanone] | Inconclusive inhibitor | 12.6 µM |  | Inconclusive inhibitor | 7.68 µM | AC50 (human CYP2C19 [4]; [10]): 12.8 µM
17 | COc1ccc(-c2ccccc2)cc1NNC(=O)OC(C)C [Bifenazate] |  |  |  |  |  | Luciferase IC50 (half-maximal inhibitory concentration) [5]: Inactive; IC50 (human CYP1A2 [2]; [11]): 4.75 µM; IC50 (human CYP2C19 [4]; [12]): 0.49 µM; IC50 (human CYP2C9 [6]; [13]): 2.33 µM; IC50 (CYP3A4; [14]): 1.51 µM
18 | O=C1c2ccccc2C(=O)c2c(Cl)cccc21 [1-Chloroanthraquinone] |  |  |  |  |  | Luciferase IC50 (half-maximal inhibitory concentration) [5]: Inactive; AC50 (human CYP1A2 [2]): 0.05 µM; IC50 (human CYP1A2 [2]): 0.05 µM; AC50 (human CYP2C19 [4]): 13.9 µM; IC50 (human CYP2C19 [4]): 13.9 µM; AC50 (human CYP2C9 [6]): 12.6 µM; IC50 (human CYP2C9 [6]): 12.6 µM; CYP2D6 IC50 (half-maximal inhibitory concentration) (human CYP2D6): Inactive; AC50 (CYP3A4): 2.37 µM
19 | COC(=O)N(C(=O)N1COC2(C(=O)OC)Cc3cc(Cl)ccc3C2=N1)c1ccc(OC(F)(F)F)cc1 (racemic) [(+-)-Indoxacarb] |  |  |  |  |  | Luciferase IC50 (half-maximal inhibitory concentration) [5]: Inactive; CYP1A2 IC50 (half-maximal inhibitory concentration) (human CYP1A2 [7]): Inactive; IC50 (human CYP2C19 [4]; [12]): 0.28 µM; IC50 (human CYP2C9 [6]; [13]): 4.76 µM; CYP2D6 IC50 (half-maximal inhibitory concentration) (human CYP2D6): Inactive; IC50 (CYP3A4; [14]): 6.03 µM
20 | O=[N+]([O-])c1cccc2cccnc12 [8-Nitroquinoline] | Inactive | 33.9 µM | Inconclusive inhibitor | Inactive | 38 µM | 
21 | COC(=O)c1cccc(C(=O)OC)c1 [Dimethyl isophthalate] | Inactive |  | Inconclusive inhibitor | Inactive |  | AC50 (human CYP1A2 [2]): 9.71 µM; AC50 (CYP3A4): 52.6 µM
22 | O=C1c2ccccc2-c2ccccc21 [9-Fluorenone] |  |  |  |  |  | IC50 [5]: 67.7 µM; AC50 (human CYP1A2 [2]): 0.45 µM; IC50 (human CYP1A2 [2]): 0.45 µM; AC50 (human CYP2C19 [4]): 43.8 µM; IC50 (human CYP2C19 [4]): 43.8 µM; AC50 (human CYP2C9 [6]): 67.7 µM; IC50 (human CYP2C9 [6]): 67.7 µM; CYP2D6 IC50 (half-maximal inhibitory concentration) (human CYP2D6): Inactive; AC50 (CYP3A4): 10.4 µM
23 | COc1ccc(COC(C)=O)cc1 [4-Methoxybenzyl acetate] | Inactive |  |  | Inactive |  | AC50 (human CYP1A2 [2]): 28.9 µM; AC50 (human CYP2C19 [4]): 53.7 µM; AC50 (CYP3A4): 40.8 µM
24 | Clc1nnc(Cl)c2ccccc12 [1,4-Dichlorophthalazine] | Inactive |  | Inactive | Inconclusive inhibitor |  | AC50 (human CYP1A2 [2]): 9.06 µM; AC50 (CYP3A4): 5.51 µM
25 | CCNc1nc(NCC)nc(SC)n1 [Simetryn] | Inconclusive activator | 8.11 µM | Inconclusive inhibitor | Inactive | 46.2 µM | 
26 | Cc1ccc2ccccc2n1 [Quinaldine] | Inactive | 44 µM | Inactive | Inactive | 47.7 µM | 
27 | O=C(O)c1ccc(Cl)c(Cl)c1 [3,4-Dichlorobenzoic acid] | Inconclusive inhibitor | 59.2 µM | Inconclusive inhibitor | Inactive | 59.7 µM | 
28 | CNC(=O)Oc1ccccc1C(C)C [Isoprocarb] | Inconclusive inhibitor | 35.6 µM |  | Inactive | 49.3 µM | AC50 (human CYP2C19 [4]; [10]): 63.5 µM
29 | COC(=O)COc1ccc(Cl)cc1Cl [2,4-D-methyl] | Inactive | 15.4 µM |  | Inactive | 44 µM | AC50 (human CYP2C19 [4]; [10]): 71.9 µM
30 | O=C(Oc1ccccc1)c1ccccc1C(=O)Oc1ccccc1 [Diphenyl phthalate] |  | 4.94 µM |  | Inactive | 7.65 µM | AC50 (human CYP2C19 [4]; [10]): 14.2 µM; AC50 (human CYP2C9 [6]; CYP2C9 AC50 (half-maximal activity concentration)): 13.7 µM
